Several values for one entry are separate records, joined by “and”; a condition that tells them apart may be missing. Equal entries are not always repeated.
System: LG0703-F948-PDC complex spheroid viability
Assay: Anticancer human tumor LG0703-F948-PDC patient-derived lung adenocarcinoma cell line growth inhibition [RAS]
Conditions: for viability, T/C: stronger effect = lower value; active = viability on the fitted dose curve at most 10% of control; inactive = the rest
Summary of the method: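 Multi-cell-type spheroids: tumor cells plus HUVEC endothelial cells and mesenchymal stem cells. RAS-pathway inhibitors were combined with targeted agents, each dosed in half-log steps down from clinical Cmax, or from 10 microM when Cmax was unknown.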

[1] = curve of first compound, second compound 0.000949 µM
[2] = curve of first compound, second compound 0.003 µM
[3] = curve of first compound, second compound 0.00949 µM
[4] = curve of first compound, second compound 0.03 µM
[5] = curve of first compound, second compound 0.0949 µM
[6] = curve of first compound, second compound 0.3 µM
[7] = second compound 0.000949 µM, first compound 0.0316 µM
[8] = second compound 0.000949 µM, first compound 0.1 µM
[9] = second compound 0.000949 µM, first compound 0.316 µM
[10] = second compound 0.000949 µM, first compound 1 µM
[11] = second compound 0.000949 µM, first compound 3.16 µM
[12] = second compound 0.000949 µM, first compound 10 µM
[13] = second compound 0.003 µM, first compound 0.0316 µM
[14] = second compound 0.003 µM, first compound 0.1 µM
[15] = second compound 0.003 µM, first compound 0.316 µM
[16] = second compound 0.003 µM, first compound 1 µM
[17] = second compound 0.003 µM, first compound 3.16 µM
[18] = second compound 0.003 µM, first compound 10 µM
[19] = second compound 0.00949 µM, first compound 0.0316 µM
[20] = second compound 0.00949 µM, first compound 0.1 µM
[21] = second compound 0.00949 µM, first compound 0.316 µM
[22] = second compound 0.00949 µM, first compound 1 µM
[23] = second compound 0.00949 µM, first compound 3.16 µM
[24] = second compound 0.00949 µM, first compound 10 µM
[25] = second compound 0.03 µM, first compound 0.0316 µM
[26] = second compound 0.03 µM, first compound 0.1 µM
[27] = second compound 0.03 µM, first compound 0.316 µM
[28] = second compound 0.03 µM, first compound 1 µM
[29] = second compound 0.03 µM, first compound 3.16 µM
[30] = second compound 0.03 µM, first compound 10 µM
[31] = second compound 0.0949 µM, first compound 0.0316 µM
[32] = second compound 0.0949 µM, first compound 0.1 µM
[33] = second compound 0.0949 µM, first compound 0.316 µM
[34] = second compound 0.0949 µM, first compound 1 µM
[35] = second compound 0.0949 µM, first compound 3.16 µM
[36] = second compound 0.0949 µM, first compound 10 µM
[37] = second compound 0.3 µM, first compound 0.0316 µM
[38] = second compound 0.3 µM, first compound 0.1 µM
[39] = second compound 0.3 µM, first compound 0.316 µM
[40] = second compound 0.3 µM, first compound 1 µM
[41] = second compound 0.3 µM, first compound 3.16 µM
[42] = second compound 0.3 µM, first compound 10 µM
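Also: spheroids exposed to agents for 7 days.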
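For viability, T/C in this document: 100% = DMSO vehicle wells.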

CC(=O)OC12COC1CC(O)C1(C)C(=O)C(O)C3=C(C)C(OC(=O)C(O)C(NC(=O)OC(C)(C)C)c4ccccc4)CC(O)(C(OC(=O)c4ccccc4)C21)C3(C)C (stereo not drawn) + C#Cc1c(F)ccc2cc(O)cc(-c3ncc4c(N5CC6CCC(C5)N6)nc(OCC56CCCN5CC(F)C6)nc4c3F)c12
< 31.6 nM: IC50 (curve of first compound, second compound 0.0316 µM) | IC50 (curve of first compound, second compound 0.1 µM) | IC50 (curve of first compound, second compound 0.316 µM) | IC50 (curve of first compound, second compound 1 µM) | IC50 (curve of first compound, second compound 3.16 µM) | IC50 (curve of first compound, second compound 10 µM)
inactive: viability, T/C (second compound 0.0316 µM, first compound 0.0316 µM) 28.1% | viability, T/C (second compound 0.0316 µM, first compound 0.1 µM) 22.9% | viability, T/C (second compound 0.0316 µM, first compound 0.316 µM) 23.7% | viability, T/C (second compound 0.0316 µM, first compound 1 µM) 27.4% | viability, T/C (second compound 0.0316 µM, first compound 3.16 µM) 33.1% | viability, T/C (second compound 0.0316 µM, first compound 10 µM) 27.8% | viability, T/C (second compound 0.1 µM, first compound 0.0316 µM) 23.5% | viability, T/C (second compound 0.1 µM, first compound 0.1 µM) 27.3% | viability, T/C (second compound 0.1 µM, first compound 0.316 µM) 24.9% | viability, T/C (second compound 0.1 µM, first compound 1 µM) 32% | viability, T/C (second compound 0.1 µM, first compound 3.16 µM) 32.9% | viability, T/C (second compound 0.1 µM, first compound 10 µM) 25.2% | viability, T/C (second compound 0.316 µM, first compound 0.0316 µM) 27.2% | viability, T/C (second compound 0.316 µM, first compound 0.1 µM) 22.6% | viability, T/C (second compound 0.316 µM, first compound 0.316 µM) 27.7% | viability, T/C (second compound 0.316 µM, first compound 1 µM) 26.2% | viability, T/C (second compound 0.316 µM, first compound 3.16 µM) 24.8% | viability, T/C (second compound 0.316 µM, first compound 10 µM) 22.9% | viability, T/C (second compound 1 µM, first compound 0.0316 µM) 25.5% | viability, T/C (second compound 1 µM, first compound 0.1 µM) 26.4% | viability, T/C (second compound 1 µM, first compound 0.316 µM) 24.6% | viability, T/C (second compound 1 µM, first compound 1 µM) 26.4% | viability, T/C (second compound 1 µM, first compound 3.16 µM) 22.7% | viability, T/C (second compound 1 µM, first compound 10 µM) 20.1% | viability, T/C (second compound 3.16 µM, first compound 0.0316 µM) 23.5% | viability, T/C (second compound 3.16 µM, first compound 0.1 µM) 22.8% | viability, T/C (second compound 3.16 µM, first compound 0.316 µM) 23% | viability, T/C (second compound 3.16 µM, first compound 1 µM) 18.9% | viability, T/C (second compound 3.16 µM, first compound 3.16 µM) 16.3% | viability, T/C (second compound 3.16 µM, first compound 10 µM) 16.1% | viability, T/C (second compound 10 µM, first compound 0.0316 µM) 17.2% | viability, T/C (second compound 10 µM, first compound 0.1 µM) 18.5% | viability, T/C (second compound 10 µM, first compound 0.316 µM) 16% | viability, T/C (second compound 10 µM, first compound 1 µM) 11.8%
active: viability, T/C (second compound 10 µM, first compound 3.16 µM) 8.84% | viability, T/C (second compound 10 µM, first compound 10 µM) 5.54%

Cc1nc(N2CCC3(CC2)COC(C)C3N)c(CO)nc1Sc1ccnc(N)c1Cl (stereo not drawn)
348 nM and 399 nM and 337 nM: IC50 (curve of compound)
inactive: viability, T/C (compound 0.0316 µM) 91.6% and 86.5% and 84.2% | viability, T/C (compound 0.1 µM) 68.1% and 83.2% and 66.4% | viability, T/C (compound 0.316 µM) 50.8% and 48.3% and 51.7% | viability, T/C (compound 1 µM) 36.9% and 35.6% and 34.5% | viability, T/C (compound 3.16 µM) 22% and 21.2% and 25.2% | viability, T/C (compound 10 µM) 11.4% and 12.8% and 12.1%

NC1c2ccccc2OC12CCN(c1cnc3c(N4CCCc5ncccc54)n[nH]c3n1)CC2 (stereo not drawn) + CCn1c(-c2cccnc2C(C)OC)c2c3cc(ccc31)N1CCOC(CC(NC(=O)C(C(C)C)N(C)C(=O)C3(F)CCN(C(=O)C#CC(C)(C)N(C)C)CC3)C(=O)N3CCCC(N3)C(=O)OCC(C)(C)C2)C1
< 31.6 nM: IC50 [5] | IC50 [6]
38.7 nM: IC50 [4]
active: viability, T/C [11] 4.73% | viability, T/C [12] 2.85% | viability, T/C [17] 6.54% | viability, T/C [18] 2.52% | viability, T/C [22] 8.74% | viability, T/C [23] 5.35% | viability, T/C [24] 2.44% | viability, T/C [29] 4.93% | viability, T/C [30] 1.68% | viability, T/C [34] 5.4% | viability, T/C [35] 2.95% | viability, T/C [36] 1.32% | viability, T/C [39] 7.14% | viability, T/C [40] 2.48% | viability, T/C [41] 2.04% | viability, T/C [42] 1.58%
47.9 nM: IC50 [3]
46.2 nM: IC50 [2]
inactive: viability, T/C [7] 55.4% | viability, T/C [8] 43.5% | viability, T/C [9] 22.8% | viability, T/C [10] 12.4% | viability, T/C [13] 57.1% | viability, T/C [14] 35.3% | viability, T/C [15] 21.8% | viability, T/C [16] 10.3% | viability, T/C [19] 59.1% | viability, T/C [20] 33.1% | viability, T/C [21] 20.6% | viability, T/C [25] 53.6% | viability, T/C [26] 33.8% | viability, T/C [27] 18.5% | viability, T/C [28] 10.7% | viability, T/C [31] 42% | viability, T/C [32] 27.2% | viability, T/C [33] 12% | viability, T/C [37] 25.2% | viability, T/C [38] 10.4%
52.3 nM: IC50 [1]

C[C@@H](NC(=O)c1ncnc(N)c1Cl)c1ncc(C(=O)Nc2cc(C(F)(F)F)c(Cl)cn2)s1 + CCn1c(-c2cccnc2C(C)OC)c2c3cc(ccc31)N1CCOC(CC(NC(=O)C(C(C)C)N(C)C(=O)C3(F)CCN(C(=O)C#CC(C)(C)N(C)C)CC3)C(=O)N3CCCC(N3)C(=O)OCC(C)(C)C2)C1
inactive: viability, T/C [7] 87.6% | viability, T/C [8] 106% | viability, T/C [9] 118% | viability, T/C [10] 110% | viability, T/C [11] 102% | viability, T/C [12] 90.1% | viability, T/C [13] 106% | viability, T/C [14] 102% | viability, T/C [15] 85.5% | viability, T/C [16] 113% | viability, T/C [17] 103% | viability, T/C [18] 105% | viability, T/C [19] 94.1% | viability, T/C [20] 108% | viability, T/C [21] 91% | viability, T/C [22] 103% | viability, T/C [23] 92.3% | viability, T/C [24] 87.7% | viability, T/C [25] 99.6% | viability, T/C [26] 105% | viability, T/C [27] 88.4% | viability, T/C [28] 97% | viability, T/C [29] 107% | viability, T/C [30] 82.2% | viability, T/C [31] 74.4% | viability, T/C [32] 71.1% | viability, T/C [33] 81.7% | viability, T/C [34] 78.3% | viability, T/C [35] 88.4% | viability, T/C [36] 65.9% | viability, T/C [37] 43.5% | viability, T/C [38] 42.9% | viability, T/C [39] 48.6% | viability, T/C [40] 54% | viability, T/C [41] 48.1% | viability, T/C [42] 37.5%
< 31.6 nM: IC50 [6]
> 10000 nM: IC50 [1] | IC50 [2] | IC50 [3] | IC50 [4] | IC50 [5]

— PubChem BioAssay AID2060890 (Molecular Pharmacology Branch, DTP, NCI, 2025)
